Measurements taken from patent publication US20240398784A1, “C-LINKED ISOQUINOLINE AMIDES AS LRRK2 INHIBITORS, PHARMACEUTICAL COMPOSITIONS, AND USES THEREOF” (Merck Sharp & Dohme LLC, priority 2021, published 2024).

Biological target: LRRK2 G2019S (Homo sapiens, UniProt Q5S007, G2019S)
Assay: LRRK2 G2019S Km ATP LanthaScreen assay
Type: biochemical
Conditions: read-out: LRRK2 pIC50 (converted)

LRRK2 G2019S, sequence (Q5S007 whole entry G2019S): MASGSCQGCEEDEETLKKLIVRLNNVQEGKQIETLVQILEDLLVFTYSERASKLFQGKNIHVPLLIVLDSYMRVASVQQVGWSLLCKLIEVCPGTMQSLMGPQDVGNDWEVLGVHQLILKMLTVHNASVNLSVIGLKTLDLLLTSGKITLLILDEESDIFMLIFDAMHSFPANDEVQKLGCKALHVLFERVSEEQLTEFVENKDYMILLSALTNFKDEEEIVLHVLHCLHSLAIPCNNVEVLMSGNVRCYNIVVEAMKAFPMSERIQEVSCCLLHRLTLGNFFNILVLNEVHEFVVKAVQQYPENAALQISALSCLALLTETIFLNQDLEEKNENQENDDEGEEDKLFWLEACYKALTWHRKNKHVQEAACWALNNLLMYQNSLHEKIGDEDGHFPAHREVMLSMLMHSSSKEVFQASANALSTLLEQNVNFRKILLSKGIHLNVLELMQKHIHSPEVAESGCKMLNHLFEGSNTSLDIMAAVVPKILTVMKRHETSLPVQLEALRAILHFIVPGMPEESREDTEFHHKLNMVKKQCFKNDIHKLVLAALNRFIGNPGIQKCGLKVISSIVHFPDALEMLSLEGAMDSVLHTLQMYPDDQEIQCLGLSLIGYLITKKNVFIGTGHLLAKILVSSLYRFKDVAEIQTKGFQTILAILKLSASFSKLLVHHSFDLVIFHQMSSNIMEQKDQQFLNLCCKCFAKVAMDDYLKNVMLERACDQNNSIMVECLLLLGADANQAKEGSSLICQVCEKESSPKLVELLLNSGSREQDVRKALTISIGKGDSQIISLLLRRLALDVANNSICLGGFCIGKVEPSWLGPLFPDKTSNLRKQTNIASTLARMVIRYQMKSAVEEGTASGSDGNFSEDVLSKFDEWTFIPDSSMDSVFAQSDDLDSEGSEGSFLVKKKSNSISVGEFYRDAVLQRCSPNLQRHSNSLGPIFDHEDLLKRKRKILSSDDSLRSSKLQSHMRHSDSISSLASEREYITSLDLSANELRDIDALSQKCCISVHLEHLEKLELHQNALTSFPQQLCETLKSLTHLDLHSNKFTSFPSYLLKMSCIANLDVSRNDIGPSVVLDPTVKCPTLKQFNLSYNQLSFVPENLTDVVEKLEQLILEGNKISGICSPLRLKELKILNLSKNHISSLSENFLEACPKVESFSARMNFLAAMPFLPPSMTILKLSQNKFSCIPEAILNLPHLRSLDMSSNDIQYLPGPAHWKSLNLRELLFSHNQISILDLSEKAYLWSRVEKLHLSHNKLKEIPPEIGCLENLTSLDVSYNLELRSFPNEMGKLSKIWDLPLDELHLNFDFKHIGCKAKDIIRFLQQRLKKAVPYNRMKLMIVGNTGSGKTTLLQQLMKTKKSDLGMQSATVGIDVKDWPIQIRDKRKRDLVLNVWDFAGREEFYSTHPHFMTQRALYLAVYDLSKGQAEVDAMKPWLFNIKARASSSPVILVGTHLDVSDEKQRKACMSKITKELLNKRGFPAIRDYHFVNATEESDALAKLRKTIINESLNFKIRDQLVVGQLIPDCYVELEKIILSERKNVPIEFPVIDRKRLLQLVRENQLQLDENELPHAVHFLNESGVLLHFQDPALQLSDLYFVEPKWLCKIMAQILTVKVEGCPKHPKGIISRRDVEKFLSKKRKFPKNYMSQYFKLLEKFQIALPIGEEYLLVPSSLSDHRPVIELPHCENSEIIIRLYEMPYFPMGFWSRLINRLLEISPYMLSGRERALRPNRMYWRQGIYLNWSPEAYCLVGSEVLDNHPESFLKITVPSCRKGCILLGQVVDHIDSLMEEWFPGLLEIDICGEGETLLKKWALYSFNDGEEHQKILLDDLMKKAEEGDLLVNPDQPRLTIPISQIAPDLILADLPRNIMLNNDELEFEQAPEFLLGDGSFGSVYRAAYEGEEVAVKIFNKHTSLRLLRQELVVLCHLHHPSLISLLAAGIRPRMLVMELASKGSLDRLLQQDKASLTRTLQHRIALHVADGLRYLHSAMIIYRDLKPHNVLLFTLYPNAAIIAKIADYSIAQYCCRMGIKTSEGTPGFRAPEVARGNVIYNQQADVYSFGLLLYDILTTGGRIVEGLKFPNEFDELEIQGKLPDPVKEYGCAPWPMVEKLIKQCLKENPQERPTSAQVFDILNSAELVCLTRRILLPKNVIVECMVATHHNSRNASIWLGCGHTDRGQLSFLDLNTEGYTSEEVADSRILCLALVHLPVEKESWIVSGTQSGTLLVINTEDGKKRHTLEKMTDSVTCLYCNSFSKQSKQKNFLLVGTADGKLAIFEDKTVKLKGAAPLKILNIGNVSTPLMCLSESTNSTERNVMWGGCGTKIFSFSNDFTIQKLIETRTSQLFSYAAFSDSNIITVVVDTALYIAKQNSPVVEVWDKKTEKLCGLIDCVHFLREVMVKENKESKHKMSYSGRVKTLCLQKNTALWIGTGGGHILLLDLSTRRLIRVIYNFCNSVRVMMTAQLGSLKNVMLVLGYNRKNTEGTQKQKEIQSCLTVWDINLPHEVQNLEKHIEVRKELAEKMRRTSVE

O=C(Nc1cc2cc(C3CCN(C4COCC4O)CC3)c(Cl)cc2cn1)C1CC12CCOCC2 (single isomer, unassigned) [Ex-4.1, (R or S)-N-(7-chloro-6-(1-((3R,4R or 3R, 4R)-4-hydroxytetrahydrofuran-3-yl)piperidin-4-yl)isoquinolin-3-yl)-6-oxaspiro[2.5]octane-1-carboxamide]
IC50: 0.631 nM

C[C@@]1(N2CC[C@@H](c3cc4cc(NC(=O)[C@H]5CC56CC6)ncc4cc3Cl)[C@H](F)C2)COC[C@@H]1O [Ex-23.1, (S)-N-(7-chloro-6-((3S,4S)-3-fluoro-1-((3R,4R)-4-hydroxy-3-methyltetrahydrofuran-3-yl)piperidin-4-yl)isoquinolin-3-yl)spiro[2.2]pentane-1-carboxamide]
IC50: 0.0813 nM

CC1(N2CCC(c3cc4cc(NC(=O)C5CC5c5ccccn5)ncc4cc3F)CC2)COCC1O (single isomer, unassigned) [Ex-8.4, N-(7-fluoro-6-(1-(4-hydroxy-3-methyltetrahydrofuran-3-yl)piperidin-4-yl)isoquinolin-3-yl)-2-(pyridin-2-yl)cyclopropane-1-carboxamide]
IC50: 0.0813 nM

COC1CC(C(=O)Nc2cc3cc(C4(C#N)CC45CC5)ccc3cn2)C1 (single isomer, unassigned) [Ex-1.2, (1R,3R or 1S,3S)-N-(6-((R or S)-1-cyanospiro[2.2]pentan-1-yl)isoquinolin-3-yl)-3-methoxycyclobutane-1-carboxamide]
IC50: 0.661 nM

Cc1cc2cnc(NC(=O)C3CC34CCOC4)cc2cc1C1CCN(C2(C)COCC2F)CC1 (single isomer, unassigned) [Ex-15.11, N-(6-(1-(4-fluoro-3-methyltetrahydrofuran-3-yl)piperidin-4-yl)-7-methylisoquinolin-3-yl)-5-oxaspiro[2.4]heptane-1-carboxamide]
IC50: 70.8 nM

CC(C)(O)c1ccc(CC(=O)Nc2cc3cc(C4(C#N)CC45CC5)ccc3cn2)cc1 (single isomer, unassigned) [Ex-1.44, (R or S)-N-(6-(1-cyanospiro[2.2]pentan-1-yl)isoquinolin-3-yl)-2-(4-(2-hydroxypropan-2-yl)phenyl)acetamide]
IC50: 22.9 nM

CC1(N2CCC(c3cc4cc(NC(=O)C5C6COCC65)ncc4cc3Cl)CC2)CCOC1 (single isomer, unassigned) [Ex-6.12, N-(7-chloro-6-(1-(3-methyltetrahydrofuran-3-yl)piperidin-4-yl)isoquinolin-3-yl)-3-oxabicyclo[3.1.0]hexane-6-carboxamide]
IC50: 8.13 nM

CC1(C)CC(C(=O)Nc2cc3cc(C4CCC(N5CCC(F)C5)CC4)c(Cl)cc3cn2)CCO1 (single isomer, unassigned) [Ex-5.14, N-(7-chloro-6-(4-(3-fluoropyrrolidin-1-yl)cyclohexyl)isoquinolin-3-yl)-2,2-dimethyltetrahydro-2H-pyran-4-carboxamid]
IC50: 38.9 nM

Cn1cc(C2CC2C(=O)Nc2cc3cc(C4CC(N5CC(F)C5)C4)c(Cl)cc3cn2)cn1 (single isomer, unassigned) [Ex-5.26, N-(7-chloro-6-(3-(3-fluoroazetidin-1-yl)cyclobutyl)isoquinolin-3-yl)-2-(1-methyl-1H-pyrazol-4-yl)cyclopropane-1-carboxamide]
IC50: 2.34 nM

CC(C)(O)C1CC1C(=O)Nc1cc2cc(C3CCN(C4(C)COCC4F)CC3)c(Cl)cc2cn1 (single isomer, unassigned) [Ex-6.26, N-(7-chloro-6-(1-(4-fluoro-3-methyltetrahydrofuran-3-yl)piperidin-4-yl)isoquinolin-3-yl)-2-(2-hydroxypropan-2-yl)cyclopropane-1-carboxamide]
IC50: 0.234 nM

CC1(N2CCC(c3cc4cc(NC(=O)C5C6CCOCC65)ncc4cc3Cl)CC2)COCC1O (single isomer, unassigned) [Ex-4.33, N-(7-chloro-6-(1-(4-hydroxy-3-methyltetrahydrofuran-3-yl)piperidin-4-yl)isoquinolin-3-yl)-3-oxabicyclo[4.1.0]heptane-7-carboxamide]
IC50: 1.17 nM

Cc1cc2cnc(NC(=O)C3CC3c3ccccn3)cc2cc1C1CCN(C2(C)COCC2F)CC1 (single isomer, unassigned) [Ex-13.4, (1R,2R or 1S,2S)-N-(6-(1-((3R,4R or 3S,4S)-4-fluoro-3-methyltetrahydrofuran-3-yl)piperidin-4-yl)-7-methylisoquinolin-3-yl)-2-(pyridin-2-yl)cyclopropane-1-carboxamide]
IC50: 21.9 nM

N#CC1(c2ccc3cnc(NC(=O)C4CC45CCOCC5)cc3c2)CC12CC2 (single isomer, unassigned) [Ex-18.11, (R or S)-N-(6-((R or S)-1-cyanospiro[2.2]pentan-1-yl)isoquinolin-3-yl)-6-oxaspiro[2.5]octane-1-carboxamide]
IC50: 9.55 nM

CC(C)(O)C1CC1C(=O)Nc1cc2cc(C3(C#N)CC34CC4)ccc2cn1 (stereo not shown) [Ex-2.31]
IC50: 0.224 nM

CC1(N2CCC(c3cc4cc(NC(=O)C5CC56CCOCC6)ncc4cc3Cl)CC2)COC(C2CC2)C1 (single isomer, unassigned) [Ex-6.16, N-(7-chloro-6-(1-(5-cyclopropyl-3-methyltetrahydrofuran-3-yl)piperidin-4-yl)isoquinolin-3-yl)-6-oxaspiro[2.5]octane-1-carboxamide]
IC50: 0.214 nM

O=C(Nc1cc2cc(C3CCN(C4COC4)CC3)c(Cl)cc2cn1)C1CC12CCC(F)(F)CC2 (single isomer, unassigned) [Ex-1.8, (R or S)-N-(7-chloro-6-(1-(oxetan-3-yl)piperidin-4-yl)isoquinolin-3-yl)-6,6-difluorospiro[2.5]octane-1-carboxamide]
IC50: 21.4 nM

Cn1cc(C2CC2C(=O)Nc2cc3cc(C4CCN(C5(C)COCC5F)CC4)c(Cl)cc3cn2)cn1 (single isomer, unassigned) [Ex-6.31, N-(7-chloro-6-(1-(4-fluoro-3-methyltetrahydrofuran-3-yl)piperidin-4-yl)isoquinolin-3-yl)-2-(1-methyl-1H-pyrazol-4-yl)cyclopropane-1-carboxamide]
IC50: 0.178 nM

CC1(N2CCC(c3cc4cc(NC(=O)C5CCC(C(F)(F)F)OC5)ncc4cc3Cl)CC2)COCC1O (stereo not shown) [Ex-2.62]
IC50: 5.13 nM

O=C(Nc1cc2cc(C3CCN(C4COC4)CC3)c(Cl)cc2cn1)C1CC12CCOCC2 (single isomer, unassigned) [Ex-9.8, N-(7-chloro-6-(1-(oxetan-3-yl)piperidin-4-yl)isoquinolin-3-yl)-6-oxaspiro[2.5]octane-1-carboxamide]
IC50: 19.1 nM

CC(C(=O)Nc1cc2cc(C3CCN(C4(C)COCC4O)CC3)c(Cl)cc2cn1)c1cnn(C)c1 (stereo not shown) [Ex-2.106]
IC50: 0.288 nM

CC1CC1C(=O)Nc1cc2cc(C3CCN(C4COC4)CC3)c(Cl)cc2cn1 (single isomer, unassigned) [Ex-9.6, N-(7-chloro-6-(1-(oxetan-3-yl)piperidin-4-yl)isoquinolin-3-yl)-2-methylcyclopropane-1-carboxamide]
IC50: 8.91 nM

CCC1C(C(=O)Nc2cc3cc(C(C)COC)c(Cl)cc3cn2)C1c1cnn(C)c1 (single isomer, unassigned) [Ex-9.13, N-(7-chloro-6-(1-methoxypropan-2-yl)isoquinolin-3-yl)-2-ethyl-3-(1-methyl-1H-pyrazol-4-yl)cyclopropane-1-carboxamide]
IC50: 6.92 nM
